According to patent publication US20190367868A1, “NEURONS AND COMPOSITIONS AND METHODS FOR PRODUCING THE SAME” (President and Fellows of Harvard College, priority 2015, published 2019):
Where “and” joins values, the source holds several entries; their conditions need not be identical. Identical values can stand only once.

Columns and labels:
Assay type in all cases: cell-based, human
[1] = tested on: dissociated neurons from motor neuron spheres; test: phospho-CREB immunocytochemistry after KCl depolarization of motor neurons
Method: When stimulated with sonic hedgehog and retinoic acid at the proper doses and time points, differentiating cells within the spheres adopt the motor neuron fate and can be dissociated and replated without glial feeder layers.
Cell cultures were fixed in 4% paraformaldehyde (PFA) in PBS at room temperature (RT) for 20 min, then blocked for 20 min in 5% horse serum (HS) (Gibco) and 0.1% Triton X-100 (Sigma) in PBS. Cells were incubated with primary antibodies overnight at 4° C. Secondary antibodies were applied for 1 hr at room temperature. Whole spheres were cleared using the SeeDB protocol as follows: samples were fixed in 4% PFA and blocked for 24-48 hrs in 0.1% Triton X-100 and 5% HS at 4° C. Samples were then incubated with primary antibodies for 2-3 days at 4° C. in either blocking solution or 10% HS. Samples were washed with PBS 3 times and incubated with secondary antibodies for 3 days in either blocking solution or 10% HS. Following washing with PBS, samples were serially incubated in 20%, 40%, 60%, and 80% (wt/vol) fructose for 6-12 hrs at 25° C. Samples were immersed in 100% (wt/vol) fructose for 24 hrs, followed by SeeDB (115%, wt/vol) for at least 24 hrs at 25° C. […]
KCl experiments were performed on spheres at day 20 of differentiation and on dissociated neurons 10 days after dissociation. […] Phospho-CREB was detected by immunostaining as described.

[2] = tested on: HUES8-derived cortical neurons; test: phospho-CREB immunocytochemistry after KCl depolarization of dissociated cortical neurons
Source text: (§1) It is well known that synaptic activation through depolarization induces a transcriptional response in neurons (Ebert and Greenberg, 2013; Flavell et al., 2008; Hong et al., 2008; Lin et al., 2008). A key event in many types of neurons, including cortical neurons, is the phosphorylation of the transcription factor CREB. To examine whether neurons from dissociated cortical spheres responded to activation, we depolarized them with KCl.
Cell cultures were fixed in 4% paraformaldehyde (PFA) in PBS at room temperature (RT) for 20 min, then blocked for 20 min in 5% horse serum (HS) (Gibco) and 0.1% Triton X-100 (Sigma) in PBS. Cells were incubated with primary antibodies overnight at 4° C. Secondary antibodies were applied for 1 hr at room temperature. Whole spheres were cleared using the SeeDB protocol as follows: samples were fixed in 4% PFA and blocked for 24-48 hrs in 0.1% Triton X-100 and 5% HS at 4° C. Samples were then incubated with primary antibodies for 2-3 days at 4° C. in either blocking solution or 10% HS. Samples were washed with PBS 3 times and incubated with secondary antibodies for 3 days in either blocking solution or 10% HS. Following washing with PBS, samples were serially incubated in 20%, 40%, 60%, and 80% (wt/vol) fructose for 6-12 hrs at 25° C. Samples were immersed in 100% (wt/vol) fructose for 24 hrs, followed by SeeDB (115%, wt/vol) for at least 24 hrs at 25° C. All solutions were prepared with H2O and contained 0.5% α-thioglycerol. Samples were stored in SeeDB at 4° C.
The primary antibodies used in this study were raised against PAX6 (Covance), OTX1-2, Ki67, TBR1, SATB2, CTIP2, and ISL1 (Abcam), GLUR1, and ChAT (Millipore), SYNAPSINI (Synaptic System), TUJ1 (Covance), and MAP2 (Lifespan Biosciences). Secondary antibodies were AlexaFluor488, -546, -555, and -647-conjugated antibodies raised against the appropriate species (Invitrogen). Immunocytochemical images were acquired on the Opera High-Content Screening System (PerkinElmer). Immunohistochemical images and Ca^2+ imaging was acquired on the Nikon Eclipse TE2000-S microscope equipped with a heated stage and a humidified chamber with atmospheric control. 3D LSFM was performed on the ZEISS Lightsheet.Z1 Microscope Quantitative image analysis of neuronal cultures was done using PerkinElmer Columbus Image Data Storage and Analysis System v2.3.3.
[…] Neurons were silenced overnight with TTX (Natchannel-blocker) (EMD Bioscience, 1 μM) and AP-V (NMDAR antagonist) (Sigma Aldrich, 100 μM), two compounds that together inhibit any spontaneous activity in cultured neurons. […] Phospho-CREB was detected by immunostaining as described.

[3] = tested on: cortical neurons from dissociated cortical spheres; test: qRT-PCR of activity-induced genes after KCl stimulation of cortical neurons; details: KCl-stimulated cortical neurons, by one hour after stimulation
Source text: as §1
Total RNA was isolated using RNeasy mini kit (QIAGEN) and subsequent cDNA synthesis with iSCRIPT (Bio-Rad). qRT-PCR was then performed using SYBER green (Bio-Rad) on a QuantStudio™ 12 K Flex Real-Time PCR System (Life Technologies). Quantitative levels for all genes were normalized to endogenous GAPDH. Expression levels of individual genes were normalized to the levels in undifferentiated human ESC/iPSC of each line. For KCL experiments, expression levels were normalized to the levels in untreated cells.
KCl experiments were performed on spheres at day 20 of differentiation and on dissociated neurons 10 days after dissociation. Neurons were silenced overnight with TTX (Natchannel-blocker) (EMD Bioscience, 1 μM) and AP-V (NMDAR antagonist) (Sigma Aldrich, 100 μM), two compounds that together inhibit any spontaneous activity in cultured neurons. […] Phospho-CREB was detected by immunostaining as described.

[4] = tested on: HUES9-derived motor neurons; test: GCaMP6 Ca2+ imaging after GABA and AMPA application; details: 100 μM, motor neurons cultured for 3 weeks after sphere dissociation
Method: Patch-clamp recordings were performed to further understand the electrophysiological characteristics of motor neurons from dissociated spheres.
For Ca^2+ imaging during the GABA switchover experiment cells were transduced with AAV1.Syn.GCaMP6s.WPRE.SV40 4 days after plating. During recording, coverslips were transferred to a perfusion chamber mounted on a Nikon Eclipse TE2000 microscope. Time-lapse recordings were performed at RT at a rate of 1 frame per second. GABA and AMPA were prepared and applied for 10 seconds in the same bath solution as used for electrophysiology. Mean fluorescent intensity of GCaMP6 fluorescence was measured in soma by ImageJ (U.S. National Institutes of Health, available at the world wide web at subdomain //imagej.nih.gov/ij/) and plotted by Igor. The amplitude was normalized to baseline fluorescent level (mean of 5 frames before drug application) for each cell. Background fluorescent level was determined in a cell-free area for each recording and subtracted.

| SMILES | phosphorylation of CREB in motor neurons after KCl depolarization [1] | relative proportion of neurons positive for phospho-CREB, 30 min KCl ([2]; HUES8-derived cortical neurons 20 days after dissociation, KCl (60 mM) for 30 min, replicates and average of three independent experiments) | relative proportion of neurons positive for phospho-CREB, 1 hr KCl ([2]; HUES8-derived cortical neurons 20 days after dissociation, KCl (60 mM) for 1 hr, replicates and average of three independent experiments) | relative proportion of neurons positive for phospho-CREB, 6 hr KCl ([2]; HUES8-derived cortical neurons 20 days after dissociation, KCl (60 mM) for 6 hrs, replicates and average of three independent experiments) | phosphorylation of CREB after depolarization ([2]; neurons from dissociated cortical spheres depolarized with KCl) | transcription of the early-induced genes NPAS4, cFOS, and ARC [3] | intracellular Ca2+ response (GCaMP6 fluorescence) [4] |
| --- | --- | --- | --- | --- | --- | --- | --- |
| [Cl-].[K+] [KCl] | phosphorylation of CREB | 45% and 35% and 38% | 38% and 34% and 32% | 29% (2×) and 36% | robust phosphorylation of CREB | increased transcription | – |
| NCCCC(=O)O [GABA] | – | – | – | – | – | – | responded |
| Cc1o[nH]c(=O)c1CC(N)C(=O)O (centres unmarked) [AMPA] | – | – | – | – | – | – | responded |
